Measurements: PubChem BioAssay (NCI)
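Grown in 96-well plates, cells were treated for 48 hours with each compound at five concentrations. Insufficient inhibition: endpoint recorded as highest concentration tested. GI50: concentration for 50% inhibition of growth. TGI denotes the concentration required for complete inhibition of growth.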

Assays:
Assay in all cases: NCI-60 cell line screen, 48 h
HS 578T breast = system: HS 578T breast
RXF 393 renal = system: RXF 393 renal
NCI/ADR-RES ovarian = system: NCI/ADR-RES ovarian
CCRF-CEM leukemia = system: CCRF-CEM leukemia
SK-OV-3 ovarian = system: SK-OV-3 ovarian
OVCAR-5 ovarian = system: OVCAR-5 ovarian
NCI-H23 lung = system: NCI-H23 lung
HT29 colon = system: HT29 colon

Row | Compound | GI50 (HS 578T breast) [µM] | TGI (HS 578T breast) [µM] | GI50 (RXF 393 renal) [µM] | TGI (RXF 393 renal) [µM] | GI50 (NCI/ADR-RES ovarian) [µM] | TGI (NCI/ADR-RES ovarian) [µM] | GI50 (CCRF-CEM leukemia) [µM] | TGI (CCRF-CEM leukemia) [µM] | GI50 (SK-OV-3 ovarian) [µM] | TGI (SK-OV-3 ovarian) [µM] | GI50 (OVCAR-5 ovarian) [µM] | TGI (OVCAR-5 ovarian) [µM] | GI50 (NCI-H23 lung) [µM] | TGI (NCI-H23 lung) [µM] | GI50 (HT29 colon) [µM] | TGI (HT29 colon) [µM]
1 | CCOc1cccc(-c2nc(N)nc(Nc3ccccc3SSc3ccccc3Nc3nc(N)nc(-c4cccc(OCC)c4)n3)n2)c1 | 6.37 | > 100 | 2.86 | 8.75 | 3.32 | > 100 | 2.2 | > 100 | 4.87 | > 100 | 3.42 | 44.1 | 3.79 | > 100 | 55.8 | > 100
2 | CS(=O)(=O)CC(=O)c1ccccc1 | – | > 100 | – | > 100 | – | > 100 | – | > 100 | – | > 100 | – | > 100 | – | > 100 | – | > 100
3 | NC(N)=N/N=C/c1ccc(-c2ccc(-c3cc(Cl)cc(Cl)c3)s2)cc1 | 1.78 | 4.05 | 1.67 | 3.37 | 2 | 4.33 | 1.65 | 4.62 | 2 | 4.08 | 1.59 | 3.02 | 1.9 | 3.88 | 1.91 | 4.81
4 | Cc1cc(N(CCCl)CCCl)ccc1C=Nc1ccc2ccccc2c1 | 34.3 | > 100 | 13.4 | > 96 | 9.62 | > 100 | 4.85 | > 100 | 19.3 | > 100 | 2.52 | > 100 | 6.12 | > 100 | > 85.3 | > 100
5 | Cn1cc(C2=C(c3cn(C)c4ccccc34)C(=O)NC2=O)c2ccccc21 | 0.7 | > 19.9 | 0.825 | 14.5 | 1.55 | > 25 | 0.952 | > 25 | 1.51 | > 25 | > 25 | > 25 | 2.3 | > 25 | 0.775 | > 25
6 | CC1(C)[C@@H](OC(=O)CCC(=O)O)CC[C@]2(C)[C@H]3C(=O)C=C4[C@@H]5C[C@@](C)(C(=O)O)CC[C@]5(C)CC[C@@]4(C)[C@]3(C)CC[C@@H]12 | 49.6 | 253 | 50.5 | 66 | 81.2 | 146 | 52.4 | 78.3 | 59.4 | 127 | 83.2 | 125 | 60.1 | 115 | 56.1 | 130
7 | c1ccc2cc(C[n+]3ccn(CCCCCCCCCCn4cc[n+](Cc5ccc6ccccc6c5)c4)c3)ccc2c1 | 1.03 | 3.63 | 0.822 | 3.72 | 29.4 | > 100 | 1.22 | 2.97 | 1.36 | 6.39 | 1.87 | 9.48 | 0.445 | 3.35 | 0.715 | 4.74
8 | O=c1ssc(Cl)c1Cl | – | > 10 | – | > 10 | – | > 10 | – | 5.25 | – | > 10 | – | > 10 | – | > 10 | – | > 10
9 | O=C(c1ccco1)c1c(C(F)(F)F)n([O-])c2ccc(Cl)cc2[n+]1=O | 1.49 | 4.37 | 1.38 | 3.83 | 0.819 | 10.3 | – | 0.838 | 2.09 | 5.63 | 1.47 | 2.86 | 0.82 | 2.55 | 0.359 | > 100
10 | CC(C)(C)c1c2c(c(C(C)(C)C)c3c1OCN(Cc1ccccc1)C3)OCN(Cc1ccccc1)C2 | – | 55.9 | – | 36.2 | – | 41 | – | > 100 | – | > 100 | – | 39 | – | 27.4 | – | 37.6
11 | N#C[Se]CCCNS(=O)(=O)C1CC2C=CC1C2 (stereo unspecified) | 0.409 | 1.87 | 0.364 | 1.34 | 0.57 | 5.12 | 0.484 | 38.2 | 2.77 | 5.65 | 0.828 | 5.13 | 1.16 | 4.63 | 0.386 | 5.31
12 | CC(=O)OC1CC2C3CCC4C[C@@H](NC(=O)C=C(C)C)CC[C@]4(C)C3CC[C@]2(C)[C@H]1C(C)N(C)C (stereo partly specified) | 2 | 5.25 | 1.59 | 3.66 | 4.13 | 16.5 | 1.81 | 8.15 | 2.79 | 7.38 | 3.46 | 10.4 | 2.55 | 8.56 | 0.376 | 1.47
13 | CN(C)c1ccc(/C=C/C2=[N+](C)c3ccccc3C2(C)C)cc1 | 4.15 | > 100 | 2.26 | 16.8 | 13.7 | > 100 | 0.456 | > 100 | 0.729 | 4.19 | 2.22 | 22.4 | 0.286 | 11.9 | 0.293 | 2.53
14 | O=c1oc2ccc(Br)cc2c(=O)n1-c1ccc(I)cc1F | 0.287 | 1.36 | 0.396 | 1.93 | 0.355 | 2.32 | 0.625 | 6.82 | 0.271 | 2.13 | 3.59 | > 100 | 0.328 | 1.89 | 3.31 | 12.5
15 | COc1cc(C(=O)Nc2cc(OC)c3ccn(C)c3c2)cc2c1C[C@]1(C)CC[C@@H](O)C(C)(C)[C@H]1O2 | 0.0673 | 2.05 | 0.0317 | 0.485 | 2.34 | 14.7 | 0.0927 | > 100 | 0.58 | 5.11 | 4.14 | > 100 | 2.32 | 18.4 | 1.68 | 13.8
16 | Cc1ccc2c(c1)S(=O)(=O)c1ccc3ccccc3c1N2 | – | > 100 | – | > 100 | – | > 100 | – | > 100 | – | > 100 | – | > 100 | – | > 100 | – | > 100

Row | Compound | GI50 (HS 578T breast) [µM] | TGI (HS 578T breast) [µM] | GI50 (RXF 393 renal) [µM] | TGI (RXF 393 renal) [µM] | GI50 (NCI/ADR-RES ovarian) [µM] | TGI (NCI/ADR-RES ovarian) [µM] | GI50 (CCRF-CEM leukemia) [µM] | TGI (CCRF-CEM leukemia) [µM] | GI50 (SK-OV-3 ovarian) [µM] | TGI (SK-OV-3 ovarian) [µM] | GI50 (OVCAR-5 ovarian) [µM] | TGI (OVCAR-5 ovarian) [µM] | GI50 (NCI-H23 lung) [µM] | TGI (NCI-H23 lung) [µM] | GI50 (HT29 colon) [µM] | TGI (HT29 colon) [µM]
17 | CC(=O)Oc1ccc(/C(=C(\C)c2ccc(Cl)cc2)c2ccc(OCCN3CCCCC3)cc2)cc1 | 2.14 | 4.82 | 1.46 | 3 | 1.97 | 5.44 | 2.2 | 6.67 | 2.31 | 6.09 | 2.72 | 8.35 | 1.82 | 4.43 | 1.19 | 3.24
18 | CCCCCCCCCCCCCCCCC(=O)O.CCCCCCCCCCCCCCCCCC(=O)O.CCCCCCCCCCCCCCCCCC(=O)O.CCCCCCCCCCCCCCCCCC(=O)O.CCCCCCCCCCCCCCCCCC(=O)O.CO[CH-]OC12COC1CC(O)C1(C)C(O)C(OC(C)O)C3=C(C)C(OC(=O)C(O)C([NH-])c4ccccc4)CC(O)(C(OC(=O)c4ccccc4)C21)C3(C)C.[Cu+].[Zn].[Zn].[Zn].[Zn].[Zn] (stereo unspecified) | 0.00335 | 0.0297 | – | 0.21 | 2.31 | 24.6 | 0.0095 | > 17.7 | 0.0203 | 5.3 | 0.0113 | 4.22 | 0.0115 | > 14.5 | < 0.0025 | > 25
19 | COc1cc(-c2cc(-c3cc(OC)c(OC)c(OC)c3)nc3nc(N)[nH]c(=O)c23)ccc1Oc1ccnc2cc(Cl)ccc12 | 3.1 | > 100 | 2.81 | 9.35 | 2.14 | > 100 | 2.66 | > 100 | 2.95 | 9.36 | 4.76 | > 100 | 3.43 | 24.9 | 10.5 | 25.4
20 | OCc1ccc(N2CCc3ccccc3C2)cc1Cl | 32.6 | > 89.8 | 13.5 | 28.8 | 5.13 | 39.8 | 27.3 | 99.6 | 0.754 | 8.95 | < 0.0123 | 0.069 | 13.9 | 44 | < 0.02 | > 55.4
21 | COc1cc2c(cc1Nc1nc(Nc3cccc(F)c3C(N)=O)c3cc[nH]c3n1)N(C(=O)CN1CCN(C(C)C)CC1)CC2 | 3.76 | 10.3 | 2.3 | 5.77 | 5.42 | 13.5 | 5.35 | 14.2 | 3.85 | 7.26 | 2.82 | 7.35 | 3.36 | 7.05 | 0.685 | 4.06
22 | COc1cc([C@@H]2C[C@H]2c2cc(SC)n[nH]2)cc(OC)c1OC | 15.1 | 45.2 | 0.0483 | 5.7 | 17.6 | 49.3 | 19.4 | > 100 | 17.4 | 65.2 | 37.9 | 90.1 | 21.1 | 58 | 26.9 | > 100
23 | O=C(Nc1n[nH]c2nnc(-c3cccnc3)cc12)C1CC1 | 0.0833 | > 9.38 | 0.428 | > 17.9 | > 25 | > 25 | 7.05 | > 25 | 0.621 | > 25 | > 17.8 | > 25 | > 15.9 | > 25 | 4.76 | > 25
24 | CCCCCCCCC(=O)OCC(CS[As](C)C)OC(=O)CCCCCCCC (stereo unspecified) | 1.39 | – | 0.548 | 10.7 | 0.89 | 3.07 | 0.396 | 11.5 | 16.5 | > 67.6 | 3.22 | 10 | 0.593 | 1.5 | 1.51 | 17.3
25 | NCOC(=O)Cc1ccc(Br)cc1 | – | > 100 | – | > 100 | – | > 100 | – | > 100 | – | > 100 | – | > 100 | – | > 100 | – | > 100
26 | COc1cc(C(=O)N/N=C/c2ccc(N(C)C)cc2)cc(OC)c1OC | 0.546 | > 100 | 0.234 | – | 0.337 | 1.6 | 0.344 | > 100 | 0.478 | > 31.1 | 3.29 | > 100 | 0.588 | > 100 | 0.347 | –
27 | CCN(CC)C1CCC(Nc2c(C(C)=O)cnc3ccc(-c4ccc(O)c(Cl)c4)cc23)CC1 (stereo unspecified) | 0.157 | 2.81 | 0.615 | 2.28 | 0.821 | 5.55 | 0.385 | 6.26 | 0.931 | > 44.5 | 2.4 | > 96.3 | 0.474 | 3.1 | 1.64 | 3.51
28 | COc1ccc(-n2ccnc2-c2cc(OC)c(OC)c(OC)c2)cc1 | 2.08 | 8.29 | 1.87 | 11.9 | 1.85 | 7.82 | 2.99 | > 100 | 5.76 | > 100 | 10.1 | > 100 | 3.3 | 65 | 1.86 | –
29 | O=C1c2ccccc2-c2c1c1ccccc1c(=O)n2CCCNCCCCNCCCN1C(=O)c2ccccc2C2C(=O)c3ccccc3C21 (stereo unspecified) | 0.739 | 2.08 | 0.0305 | 0.823 | 0.859 | 2.63 | 0.0291 | 0.766 | 1.02 | 2.81 | 0.57 | 1.19 | 0.319 | 0.999 | 0.0766 | 8.75
30 | CC(=O)c1cc(C(=O)c2ccc3c(c2)Sc2ccccc2N3)c2cc(C)ccn12 | 0.084 | > 100 | 0.0411 | > 100 | 0.0369 | > 100 | 0.257 | > 100 | 0.189 | > 100 | – | – | 0.237 | > 100 | 0.0627 | > 100
31 | COc1cc(-c2c(C#N)c(N)nc(N3CCOCC3)c2C#N)cc(OC)c1OC | 94 | > 100 | > 100 | > 100 | > 100 | > 100 | > 100 | > 100 | 81.1 | > 100 | 27.2 | > 100 | – | – | > 100 | > 100
